# Reference: ChEMBL document CHEMBL3046497, “Synthesis and antitubercular activity of novel pyrazolequinazolinone hybrid analogs” (2013)
# What was measured:
# Assay type in all cases: functional
# [1] = system: Mycobacterium tuberculosis; experiment: Antitubercular activity against Mycobacterium tuberculosis H37Rv assessed as growth inhibition by secondary screen assay
# [2] = system: Mycobacterium tuberculosis; experiment: Antitubercular activity against Mycobacterium tuberculosis H37Rv assessed as growth inhibition by primary screen assay
# [3] = system: Mycobacterium tuberculosis; experiment: Antitubercular activity against Mycobacterium tuberculosis H37Rv assessed as growth inhibition at <6.25 ug/ml by primary screen assay
# [4] = system: Mycobacterium tuberculosis; experiment: Antitubercular activity against Mycobacterium tuberculosis H37Rv assessed as growth inhibition at >6.25 ug/ml by primary screen assay
compound,measurement,setting,value
Cc1ccc(-n2cc(/C=N/n3c(-c4ccccc4C)nc4ccccc4c3=O)c(-c3ccncc3)n2)cc1,MIC,[1],< 3.12 µg/mL
same,MIC,[2],< 6.25 µg/mL
same,inhibition (INH),[3],94%
Cc1ccc(-n2cc(/C=N/n3c(-c4cccc(C)c4)nc4ccccc4c3=O)c(-c3ccncc3)n2)cc1,inhibition (INH),[4],70%
same,MIC,[2],> 6.25 µg/mL
Cc1ccc(-c2nc3ccccc3c(=O)n2/N=C/c2cn(-c3ccc(C)cc3)nc2-c2ccncc2)cc1,inhibition (INH),[4],67%
same,MIC,[2],> 6.25 µg/mL
COc1ccccc1-c1nc2ccccc2c(=O)n1/N=C/c1cn(-c2ccc(C)cc2)nc1-c1ccncc1,MIC,[1],< 3.12 µg/mL
same,MIC,[2],< 6.25 µg/mL
same,inhibition (INH),[3],93%
COc1cccc(-c2nc3ccccc3c(=O)n2/N=C/c2cn(-c3ccc(C)cc3)nc2-c2ccncc2)c1,inhibition (INH),[4],64%
same,MIC,[2],> 6.25 µg/mL
COc1ccc(-c2nc3ccccc3c(=O)n2/N=C/c2cn(-c3ccc(C)cc3)nc2-c2ccncc2)cc1,inhibition (INH),[4],59%
same,MIC,[2],> 6.25 µg/mL
Cc1ccc(-n2cc(/C=N/n3c(-c4ccccc4[N+](=O)[O-])nc4ccccc4c3=O)c(-c3ccncc3)n2)cc1,inhibition (INH),[4],73%
same,MIC,[2],> 6.25 µg/mL
Cc1ccc(-n2cc(/C=N/n3c(-c4cccc([N+](=O)[O-])c4)nc4ccccc4c3=O)c(-c3ccncc3)n2)cc1,MIC,[1],< 3.12 µg/mL
same,MIC,[2],< 6.25 µg/mL
same,inhibition (INH),[3],92%
Cc1ccc(-n2cc(/C=N/n3c(-c4ccc([N+](=O)[O-])cc4)nc4ccccc4c3=O)c(-c3ccncc3)n2)cc1,inhibition (INH),[4],67%
same,MIC,[2],> 6.25 µg/mL
Cc1ccc(-n2cc(/C=N/n3c(-c4ccccc4Cl)nc4ccccc4c3=O)c(-c3ccncc3)n2)cc1,MIC,[1],< 3.12 µg/mL
same,MIC,[2],< 6.25 µg/mL
same,inhibition (INH),[3],96%
Cc1ccc(-n2cc(/C=N/n3c(-c4cccc(Cl)c4)nc4ccccc4c3=O)c(-c3ccncc3)n2)cc1,inhibition (INH),[4],68%
same,MIC,[2],> 6.25 µg/mL
Cc1ccc(-n2cc(/C=N/n3c(-c4ccc(Cl)cc4)nc4ccccc4c3=O)c(-c3ccncc3)n2)cc1,MIC,[1],< 3.12 µg/mL
same,MIC,[2],< 6.25 µg/mL
same,inhibition (INH),[3],90%
NNC(=O)c1ccncc1 [ISONIAZID],MIC,[1],0.125 µg/mL
same,MIC,[2],< 6.25 µg/mL
